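Compound exposure: 48 hours, 5 concentrations, 96-well plates. GI50 is the concentration that inhibits growth by half. TGI denotes the concentration required for complete inhibition of growth.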
Assays:
Assay in all cases: NCI anticancer screen, dose series, 48 h
M14 melanoma = tested on: M14 melanoma
OVCAR-4 ovarian = tested on: OVCAR-4 ovarian
OVCAR-5 ovarian = tested on: OVCAR-5 ovarian
SN12C renal = tested on: SN12C renal
KM12 colon = tested on: KM12 colon
KM20L2 colon = tested on: KM20L2 colon
SR leukemia = tested on: SR leukemia
ACHN renal = tested on: ACHN renal
A498 renal = tested on: A498 renal
LOX IMVI melanoma = tested on: LOX IMVI melanoma
SF-268 CNS = tested on: SF-268 CNS
XF 498 CNS = tested on: XF 498 CNS
SK-MEL-2 melanoma = tested on: SK-MEL-2 melanoma
DMS 114 small cell lung = tested on: DMS 114 small cell lung
HT29 colon = tested on: HT29 colon
UACC-62 melanoma = tested on: UACC-62 melanoma
TK-10 renal = tested on: TK-10 renal
COLO 205 colon = tested on: COLO 205 colon
M19-MEL melanoma = tested on: M19-MEL melanoma
SNB-75 CNS = tested on: SNB-75 CNS
UACC-257 melanoma = tested on: UACC-257 melanoma
DLD-1 colon = tested on: DLD-1 colon
NCI-H522 lung = tested on: NCI-H522 lung
SNB-19 CNS = tested on: SNB-19 CNS
NCI-H23 lung = tested on: NCI-H23 lung
UO-31 renal = tested on: UO-31 renal
LXFL 529 NSCLC = tested on: LXFL 529 NSCLC
DMS 273 small cell lung = tested on: DMS 273 small cell lung
NCI-H226 lung = tested on: NCI-H226 lung
OVCAR-8 ovarian = tested on: OVCAR-8 ovarian
IGROV1 ovarian = tested on: IGROV1 ovarian
MALME-3M melanoma = tested on: MALME-3M melanoma
HOP-92 NSCLC = tested on: HOP-92 NSCLC
HL-60(TB) leukemia = tested on: HL-60(TB) leukemia
HCC-2998 colon = tested on: HCC-2998 colon
NCI-H460 lung = tested on: NCI-H460 lung
U251 CNS = tested on: U251 CNS
HOP-62 NSCLC = tested on: HOP-62 NSCLC
SK-MEL-5 melanoma = tested on: SK-MEL-5 melanoma
SW-620 colon = tested on: SW-620 colon
K-562 leukemia = tested on: K-562 leukemia
SF-295 CNS = tested on: SF-295 CNS
HCT-15 colon = tested on: HCT-15 colon
SK-OV-3 ovarian = tested on: SK-OV-3 ovarian
A549 NSCLC = tested on: A549 NSCLC
SF-539 CNS = tested on: SF-539 CNS
EKVX NSCLC = tested on: EKVX NSCLC
SK-MEL-28 melanoma = tested on: SK-MEL-28 melanoma
786-0 renal = tested on: 786-0 renal
SNB-78 CNS = tested on: SNB-78 CNS
OVCAR-3 ovarian = tested on: OVCAR-3 ovarian
MOLT-4 leukemia = tested on: MOLT-4 leukemia
HOP-18 NSCLC = tested on: HOP-18 NSCLC
RXF 393 renal = tested on: RXF 393 renal
HCT-116 colon = tested on: HCT-116 colon

With `CCC[CH2][Sn]([CH2]CCC)([O]C(=O)c1cc(F)cc(F)c1)[O]C(=O)c1cc(F)cc(F)c1` the GI50 (M14 melanoma) was 1.36 µM, the TGI (M14 melanoma) was 2.67 µM and the GI50 (OVCAR-4 ovarian) was 1.6 µM. It also gave a TGI (OVCAR-4 ovarian) of 3.01 µM, a GI50 (OVCAR-5 ovarian) of 1.6 µM and a TGI (OVCAR-5 ovarian) of 2.96 µM. The GI50 (SN12C renal) was 1.35 µM, the TGI (SN12C renal) was 2.68 µM and the GI50 (KM12 colon) was 1.63 µM. The TGI (KM12 colon) was 3 µM, the GI50 (KM20L2 colon) was 1.61 µM and the TGI (KM20L2 colon) was 3.44 µM. For the same molecule, the GI50 (SR leukemia) was 0.459 µM, the TGI (SR leukemia) was 3.29 µM and the GI50 (ACHN renal) was 1.33 µM. It also gave a TGI (ACHN renal) of 2.61 µM, a GI50 (A498 renal) of 1.49 µM and a TGI (A498 renal) of 2.83 µM. It also gave a GI50 (LOX IMVI melanoma) of 0.617 µM, a TGI (LOX IMVI melanoma) of 1.91 µM and a GI50 (SF-268 CNS) of 1.09 µM. The TGI (SF-268 CNS) was 2.34 µM, the GI50 (XF 498 CNS) was 1.87 µM and the TGI (XF 498 CNS) was 3.28 µM. The GI50 (SK-MEL-2 melanoma) was 0.298 µM, the TGI (SK-MEL-2 melanoma) was 1.24 µM and the GI50 (DMS 114 small cell lung) was 0.307 µM. For the same molecule, the TGI (DMS 114 small cell lung) was 1.22 µM, the GI50 (HT29 colon) was 1.65 µM and the TGI (HT29 colon) was 3.06 µM. It also gave a GI50 (UACC-62 melanoma) of 1.11 µM, a TGI (UACC-62 melanoma) of 2.31 µM and a GI50 (TK-10 renal) of 1.3 µM. The TGI (TK-10 renal) was 2.61 µM, the GI50 (COLO 205 colon) was 0.841 µM and the TGI (COLO 205 colon) was 2.05 µM. It also gave a GI50 (M19-MEL melanoma) of 0.514 µM, a TGI (M19-MEL melanoma) of 1.74 µM and a GI50 (SNB-75 CNS) of 0.82 µM. For the same molecule, the TGI (SNB-75 CNS) was 2.09 µM, the GI50 (UACC-257 melanoma) was 1.09 µM and the TGI (UACC-257 melanoma) was 2.28 µM. It also gave a GI50 (DLD-1 colon) of 0.727 µM, a TGI (DLD-1 colon) of 2 µM and a GI50 (NCI-H522 lung) of 0.137 µM. It also gave a TGI (NCI-H522 lung) of 0.269 µM, a GI50 (SNB-19 CNS) of 1.5 µM and a TGI (SNB-19 CNS) of 2.83 µM. For the same molecule, the GI50 (NCI-H23 lung) was 0.7 µM, the TGI (NCI-H23 lung) was 2 µM and the GI50 (UO-31 renal) was 1.44 µM. For the same molecule, the TGI (UO-31 renal) was 2.75 µM, the GI50 (LXFL 529 NSCLC) was 0.171 µM and the TGI (LXFL 529 NSCLC) was 0.607 µM. It also gave a GI50 (DMS 273 small cell lung) of 1.25 µM, a TGI (DMS 273 small cell lung) of 2.5 µM and a GI50 (NCI-H226 lung) of 1.34 µM. It also gave a TGI (NCI-H226 lung) of 2.65 µM, a GI50 (OVCAR-8 ovarian) of 1.39 µM and a TGI (OVCAR-8 ovarian) of 2.68 µM. It also gave a GI50 (IGROV1 ovarian) of 1.55 µM, a TGI (IGROV1 ovarian) of 2.94 µM and a GI50 (MALME-3M melanoma) of 0.508 µM. For the same molecule, the TGI (MALME-3M melanoma) was 1.75 µM, the GI50 (HOP-92 NSCLC) was 1.24 µM and the TGI (HOP-92 NSCLC) was 2.49 µM. For the same molecule, the GI50 (HL-60(TB) leukemia) was 0.409 µM, the TGI (HL-60(TB) leukemia) was 2.17 µM and the GI50 (HCC-2998 colon) was 0.242 µM. For the same molecule, the TGI (HCC-2998 colon) was 2 µM, the GI50 (NCI-H460 lung) was 1.54 µM and the TGI (NCI-H460 lung) was 3.02 µM. For the same molecule, the GI50 (U251 CNS) was 0.615 µM, the TGI (U251 CNS) was 1.85 µM and the GI50 (HOP-62 NSCLC) was 2.39 µM. The TGI (HOP-62 NSCLC) was 4.19 µM, the GI50 (SK-MEL-5 melanoma) was 1.34 µM and the TGI (SK-MEL-5 melanoma) was 2.61 µM. The GI50 (SW-620 colon) was 0.564 µM, the TGI (SW-620 colon) was 1.81 µM and the GI50 (K-562 leukemia) was 0.228 µM. The TGI (K-562 leukemia) was 0.965 µM, the GI50 (SF-295 CNS) was 1.34 µM and the TGI (SF-295 CNS) was 2.62 µM. The GI50 (HCT-15 colon) was 1.17 µM, the TGI (HCT-15 colon) was 2.41 µM and the GI50 (SK-OV-3 ovarian) was 2.45 µM. The TGI (SK-OV-3 ovarian) was 5.45 µM, the GI50 (A549 NSCLC) was 7.13 µM and the TGI (A549 NSCLC) was 20.4 µM. The GI50 (SF-539 CNS) was 1.52 µM, the TGI (SF-539 CNS) was 2.89 µM and the GI50 (EKVX NSCLC) was 1.29 µM. The TGI (EKVX NSCLC) was 2.55 µM, the GI50 (SK-MEL-28 melanoma) was 1.13 µM and the TGI (SK-MEL-28 melanoma) was 2.37 µM. The GI50 (786-0 renal) was 1.25 µM, the TGI (786-0 renal) was 2.49 µM and the GI50 (SNB-78 CNS) was 0.404 µM. For the same molecule, the TGI (SNB-78 CNS) was 1.66 µM, the GI50 (OVCAR-3 ovarian) was 1.36 µM and the TGI (OVCAR-3 ovarian) was 2.65 µM. It also gave a GI50 (MOLT-4 leukemia) of 0.282 µM, a TGI (MOLT-4 leukemia) of 1.73 µM and a GI50 (HOP-18 NSCLC) of 1.91 µM. For the same molecule, the TGI (HOP-18 NSCLC) was 3.33 µM, the GI50 (RXF 393 renal) was 0.349 µM and the TGI (RXF 393 renal) was 1.33 µM. For the same molecule, the GI50 (HCT-116 colon) was 1.27 µM and the TGI (HCT-116 colon) was 2.54 µM.
